Experimental data as given in patent US20110014204A1, “Cancer Chemoprevention Strategy Based on Loss of Imprinting of IGF2” (priority 2006, published 2011).
One block for each compound: values may come before it.

Legend:
[1] = tested on: aberrant crypt foci (ACF); assay: Azoxymethane (AOM)-induced aberrant crypt foci (ACF) in LOI(+) and LOI(−) mice, NVP-AEW541 by oral gavage; assay type: in vivo; conditions: for ACF per colon: AOM intraperitoneally weekly for 3 weeks, sacrificed at 5 weeks, no inhibitor; for AOM-induced ACF formation: AOM plus NVP-AEW541 50 mg/kg oral gavage for 6 weeks; for decrease in ACFs normalized to colon surface area: AOM, treated with the inhibitor
Experimental: ACF formation in the colon was induced by AOM intraperitoneal injection, and treatment with NVP-AEW541 was by gastric gavage. Each ACF was formed of 1-4 aberrant crypts, and the number of ACF (# of ACF), the number of total aberrant crypts (# of AC), and the average number of aberrant crypts per ACF were measured.
(A) ACF formation in the colon was induced by AOM i.p. injection, and treatment with NVP-AEW541 was by gastric […]. Each ACF was formed of […] aberrant crypts, and the number of ACF (# of ACF), the number of total aberrant crypts (# of AC), and the average number of aberrant crypts per ACF were measured. LOI(+) AOM mice (dark gray bars), LOI(−) AOM mice (black bars), LOI(+) AOM NVP mice (light gray bars), LOI(−) AOM NVP mice (gray bars). (B) The number of ACF and the number of total aberrant crypts (AC) were corrected by colon surface area (cm^2).
7 week old LOI(+) and LOI(−) littermate controls were treated with AOM at 10 mg/kg body weight intraperitoneally once per week for three weeks, and euthanized 5 weeks after the first dose of AOM. The entire colon was resected from mice after laparotomy, flushed with PBS, filled with 10% buffered formalin (Sigma) for one minute, opened longitudinally, fixed flat between filter paper in formalin at 4° C. overnight, rinsed with PBS, and stained with 0.2% methylene blue in saline. The number of ACF per colon and the number of aberrant crypts per ACF were scored under a light microscopy as previously described Bird, Cancer Lett (1987) 37:147-151). NVP-AEW541 (50 mg/kg) was administered by oral gavage, beginning 1 week before AOM treatment, and NVP-AEW541 was administered 7 days/week, twice a day for 5 weekdays and once a day for 2 weekend days, for 6 weeks until sacrifice.
Because of known strain variation in progression of these lesions, littermate controls were treated with and without LOI, in which the dams were heterozygous for a deletion of the H19 differentially methylated region (DMR); inheritance of a maternal allele lacking the DMR leads to activation of the normally silent allele of Igf2 [LOI(+)], while inheritance of a wild type maternal allele leads to normal imprinting [LOI(−)]. Eight LOI(+) and 14 LOI(−) mice were given AOM intraperitoneally weekly for 3 weeks, sacrificed at 5 weeks after the first dose, and ACF were scored by the method of Bird (1987). Histologic examination of colons from AOM-treated mice confirmed the presence of ACF, with hyperproliferative features including increased mitosis, crypt enlargement and crypt disarray (FIG. 12). […] An additional intriguing finding in AOM-treated LOI(+) mice was cystically dilated crypts lined by enlarged cells with atypical nuclei and that contained necrotic debris, that were reminiscent of sessile serrated adenomas (SSAs) seen in the human colon (FIG. 12). SSAs also show crypt dilatation in association with cytologic atypia and are currently of immense interest for their recently recognized association with colorectal cancer (Snover et al., Am J Clin Pathol (2005) 124:380-391). It will thus be of interest to determine whether SSAs are associated with LOI in the human population.
An additional 9 LOI(+) mice and 9 LOI(−) control littermates were similarly exposed to AOM, adding treatment with NVP-AEW541, an IGF1R inhibitor, at a dose of 50 mg/kg by oral gavage daily for 6 weeks (twice daily except daily on weekends). […] Thus, LOI of lgf2 increases the sensitivity to AOM through an IGF1R-dependent mechanism.
Eight LOI(+) and 14 LOI(−) mice were given AOM intraperitoneally weekly for 3 weeks, sacrificed at 5 weeks after the first dose, and ACFs were scored as described (Bird (1987)). Histologic examination of colons from AOM-treated mice confirmed the presence of ACFs, with hyperproliferative features including increased mitosis, crypt enlargement and crypt disarray (FIG. 14A, B). […]

intestinal crypts = assay: Proliferation-related gene expression in laser capture microdissected intestinal crypts of mice treated with NVP-AEW541 for 3 weeks (real-time PCR); assay type: in vivo; conditions: mice treated with NVP-AEW541 50 mg/kg oral gavage for 3 weeks; LOI(−) normalized to 1.0
Experimental: Qunatitative real-time PCR was performed on laser capture microdissected intestinal crypts from 12 LOI(+) and 9 LOI(−) mice. Expression was normalized to β-actin, and the expression level in LOI(+) samples (gray) relative to LOI(−) samples (black) is shown. The bars indicate standard error. […] Analysis was by quantitative real-time PCR of laser capture microdissected crypts from four LOI(+) mice and four LOI(−) mice treated with NVP-AEW541 for 3 weeks. LOI(+) (gray bars), LOI(−) mice (black bars normalized to 1.0).
For validation, LCM was performed on an additional 12 LOI(+) and 9 LOI(−) mice, isolating approximately 800 crypts yielding more than 300 ng of total RNA from each. RNA samples were reverse-transcribed using SUPERSCRIPT II (Invitrogen), and quantified using SYBR Green PCR Core Reagents and an ABI Prism 7700 Sequence Detection System (Applied Biosystems), and normalized to β-actin.
Four LOI(+) and four LOI(−) mice were also treated with NVP-AEW541 to inhibit IGF2 signaling, at a dose of 50 mg/kg by oral gavage daily for 3 weeks (twice daily except daily on weekends). NVP-AEW541 is an ATP-competitive inhibitor of IGF-IR which blocks signaling at the IGF1 receptor, which mediates IGF2 signaling (Garcia-Echeverria et al., Cancer Cell (2004) 5:231-239). […] Thus, LOI-induced changes in proliferation-related gene expression were mediated, at least in part, through IGF2 signaling itself.

IGF1 receptor = target: T1, IGF1 receptor (Mus musculus, UniProt Q60751); assay: Western blot of IGF2 signaling at the IGF1 receptor in NIH 3T3 cells with varying NVP-AEW541; assay type: cell-based; conditions: varying concentrations of NVP-AEW541, with or without IGF2
T1 construct: endogenous in cells; host or cells: NIH 3T3 cells
Experimental: NIH 3T3 cells were passaged every 3 days and maintained with low glucose DMEM plus 10% CBS in 5% CO2. The day prior to transfection cells were trypinsized and seeded into PLL-coated glass bottom Mattek dishes. Cells typically reached about 70% confluence the next day, when they were transfected with eGFP-Akt-PH plasmid with Fugene lipid following the manufacturer's instructions. 8 hours after transfection, cells were starved in 0.2% CBS in low glucose DMEM (with no antibiotics) for at least 12 hours. Western blots were performed with the antibodies shown, and varying concentrations of NVP-AEW541, with or without IGF2.

IGF1R [2] = target: T2, IGF1R (Homo sapiens, UniProt P08069); conditions: cited from earlier work
Target sequence in this assay (P08069 31-1367, species assumed): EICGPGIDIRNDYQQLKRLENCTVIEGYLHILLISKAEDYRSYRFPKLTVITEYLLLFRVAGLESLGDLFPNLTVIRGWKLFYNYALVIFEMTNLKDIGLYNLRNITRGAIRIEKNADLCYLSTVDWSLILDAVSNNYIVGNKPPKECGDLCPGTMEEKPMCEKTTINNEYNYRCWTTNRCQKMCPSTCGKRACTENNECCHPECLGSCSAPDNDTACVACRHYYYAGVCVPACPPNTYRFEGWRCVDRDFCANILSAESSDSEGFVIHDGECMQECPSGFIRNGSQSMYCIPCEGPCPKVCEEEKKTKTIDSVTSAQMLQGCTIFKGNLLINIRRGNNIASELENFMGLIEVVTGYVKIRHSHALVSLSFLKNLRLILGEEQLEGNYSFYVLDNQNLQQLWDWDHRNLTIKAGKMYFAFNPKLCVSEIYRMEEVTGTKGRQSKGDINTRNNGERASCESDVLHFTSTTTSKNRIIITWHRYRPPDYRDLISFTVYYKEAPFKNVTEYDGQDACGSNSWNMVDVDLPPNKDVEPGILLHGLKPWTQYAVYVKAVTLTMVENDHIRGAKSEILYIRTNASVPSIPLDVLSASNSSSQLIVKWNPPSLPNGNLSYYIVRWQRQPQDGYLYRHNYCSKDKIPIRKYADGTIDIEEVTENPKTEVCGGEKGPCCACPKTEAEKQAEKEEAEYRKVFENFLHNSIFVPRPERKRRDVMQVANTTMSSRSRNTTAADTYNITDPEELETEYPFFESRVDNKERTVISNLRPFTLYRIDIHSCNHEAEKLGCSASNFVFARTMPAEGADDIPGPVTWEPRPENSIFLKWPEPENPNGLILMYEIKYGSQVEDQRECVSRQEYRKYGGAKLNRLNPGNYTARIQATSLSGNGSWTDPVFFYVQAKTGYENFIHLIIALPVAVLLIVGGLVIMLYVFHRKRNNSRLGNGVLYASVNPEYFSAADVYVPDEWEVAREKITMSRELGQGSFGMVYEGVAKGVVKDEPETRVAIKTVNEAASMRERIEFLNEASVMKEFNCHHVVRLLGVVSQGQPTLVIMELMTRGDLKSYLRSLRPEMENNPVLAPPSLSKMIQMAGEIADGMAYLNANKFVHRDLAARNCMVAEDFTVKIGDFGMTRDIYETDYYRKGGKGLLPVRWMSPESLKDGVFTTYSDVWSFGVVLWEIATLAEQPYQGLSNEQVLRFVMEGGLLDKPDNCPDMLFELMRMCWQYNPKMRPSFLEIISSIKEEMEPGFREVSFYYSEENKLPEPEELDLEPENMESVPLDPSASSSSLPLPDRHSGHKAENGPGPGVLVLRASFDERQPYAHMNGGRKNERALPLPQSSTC

mouse ES cells = assay: IGF2 stimulation of mouse ES cells, gene expression by real-time RT-PCR, with or without NVP-AEW541; assay type: cell-based; conditions: for increase in Cdc6 gene expression: 800 ng/ml mouse Igf2 recombinant protein
Experimental: (§1) Mouse ES cells were cultured in defined medium and treated with 800 ng/ml mouse lgf2 protein. Gene expression was analyzed by real-time RT-PCR and normalized to β-actin. Shown is the expression level without (black boxes) and with (gray boxes) the IGF1R inhibitor 3 μM NVP-AEW541 (a pyrrolo-2,3d-pyrimidine), normalized to time 0. The bars indicate standard error.
as §1, with “(pink” for “(gray”, “IGF1R R” for “IGF1R”, “NVP-AEW541,” for “NVP-AEW541 (a pyrrolo-2,3d-pyrimidine),”, “bar represents” for “bars indicate”
For IGF2 stimulation, wild type ES cells were isolated as described above, and cultured in ESGRO Complete Basal Medium with 800 ng/ml of mouse Igf2 recombinant protein (StemCell Technologies), with or without 3 μM NVP-AEW541 (Novartis). Cells were washed with PBS twice and RNA was extracted using the RNeasy Kit (QIAGEN) at Oh, 3 h, 6 h, 10 h, and 24 h. Gene expression was assayed by real-time quantitative RT-PCR as described above.
It remained theoretically possible that the observed difference in gene expression simply reflected the over-representation of progenitor cells within the intestinal crypts, rather than a change in cellular gene expression per se. To confirm the latter, mouse embryonic stem (ES) cells were derived and plated in ESGRO Complete Clonal Grade defined medium (Chemicon), which contains no IGF2 and allows growth of undifferentiated ES cells without a feeder layer, which was done with or without 800 ng/ml of mouse Igf2 recombinant protein (StemCell Technologies). Consistent with the microarray experiments, Igf2 induced a 50% and 56% increase in Cdc6 gene expression at 3 and 6 hours, respectively, and 40% and 25% at 10 and 24 hours, respectively (FIG. 3).

Akt/PKB = assay: Microfluidic chamber single cell immunocytochemistry of Akt/PKB activation (phospho-Akt Ser 473) in LOI(+) and LOI(−) MEF cells; assay type: cell-based, mouse; conditions: for inhibition of IGF2-triggered Akt activation: 60 min coincubation with 400 ng/ml IGF2 and 3 μM NVP-AEW541
Experimental: (A) Akt/PKB activation was assayed by single cell immunocytochemistry with an antibody to phosphorylated Akt (Ser 473), in a monolithic 2-layer PDMS chip sealed with a glass coverslip, with defined media delivery controlled by a multiplexed system of valves. Live LOI(+) and LOI(−) MEF cells were stimulated within the microfluidic chips with varying doses of IGF2, with measurements at multiple time points at each IGF2 concentration. […] For each cell type, IGF2 concentration, and time point, at least 200 individual cellular measurements were obtained by digital imaging and analysis. (B) Inhibition of Akt activation by NVP-AEW541. The cells were assayed as in (A) at 60 min after coincubation with 400 ng/ml IGF2 and 3 μM NVP-AEW541 and compared with the unstimulated control. Each bar is based on measurements of >400 cells. Asterisk indicates statistical difference vs LOI(+) control (t test, P<0.001) (C) Single cell analysis of ERK activation by IGF2 in LOI(+) and LOI(−) MEF cells. Erk activation was assayed by single immunocytochemistry within microfluidic chips using an antibody to phosphorylated Erk2 from Upstate (Charlottesville, Va.). LOI(+) cells (gray) and LOI(−) cells (black) were exposed to 400 ng/ml IGF2 for indicated times. […] Error bars represent SD. Standard error bars are completely subsumed by the symbols on this scale. (D) Gene expression levels in mouse embryonic fibroblasts. Quantitative real-time PCR was performed on LOI(+) and LOI(−) MEF cells, with expression normalized to transferring receptor expression. The expression level in LOI(+) samples (black) relative to LOI(−) samples (gray) is shown. The bars indicate standard error.
The immunostaining automation device consists of a monolithic 2-layer PDMS chip sealed with a glass coverslip, fabricated using techniques described previously (Unger et al., Science 288 (2000) 288:113-116). Multiplexing valves were actuated by pressure lines connected to off-device solenoid valves. The chip architecture, performance and validation are all described in a separate manuscript submitted for publication. The glass substrate of the cell culture chamber was coated by introducing 0.1% gelatin (Sigma) into the device for at least 30 minutes, then cells were introduced and allowed to attach for 3 hours. IGF2 (StemCell Technologies) dissolved in cell media was introduced to each chamber at different times so that the end of all stimulation periods coincided. To end the experiment, ice-cold PBS (Invitrogen) was introduced into all chambers followed immediately by 4% paraformaldehyde (Electron Microscopy Systems) for 20 minutes. Cells were permeabilized with 0.1% Triton X-100 (Sigma) for 5 min and blocked with 10% goat serum (Sigma), with PBS washes in between. […] Using custom MATLAB (Mathworks) programs, the images were […], stitched together, and quantified. […] For each cell type and time point, 200-300 cells were analyzed in this manner to ensure statistical significance.
Since both the endogenous IGF2 and IGF2 used in the MEF experiments are susceptible to IGF2 binding protein (IBP)-based inactivation, the dose of an IBP-resistant IGF2 variant was determined producing similar levels of Akt activation. […]

IGF1R [3] = target: T2, IGF1R; conditions: previously estimated; read-out: kD of IGF1R for IGF2; cited from earlier work
Target sequence in this assay (P08069 31-736 limits assumed, species assumed): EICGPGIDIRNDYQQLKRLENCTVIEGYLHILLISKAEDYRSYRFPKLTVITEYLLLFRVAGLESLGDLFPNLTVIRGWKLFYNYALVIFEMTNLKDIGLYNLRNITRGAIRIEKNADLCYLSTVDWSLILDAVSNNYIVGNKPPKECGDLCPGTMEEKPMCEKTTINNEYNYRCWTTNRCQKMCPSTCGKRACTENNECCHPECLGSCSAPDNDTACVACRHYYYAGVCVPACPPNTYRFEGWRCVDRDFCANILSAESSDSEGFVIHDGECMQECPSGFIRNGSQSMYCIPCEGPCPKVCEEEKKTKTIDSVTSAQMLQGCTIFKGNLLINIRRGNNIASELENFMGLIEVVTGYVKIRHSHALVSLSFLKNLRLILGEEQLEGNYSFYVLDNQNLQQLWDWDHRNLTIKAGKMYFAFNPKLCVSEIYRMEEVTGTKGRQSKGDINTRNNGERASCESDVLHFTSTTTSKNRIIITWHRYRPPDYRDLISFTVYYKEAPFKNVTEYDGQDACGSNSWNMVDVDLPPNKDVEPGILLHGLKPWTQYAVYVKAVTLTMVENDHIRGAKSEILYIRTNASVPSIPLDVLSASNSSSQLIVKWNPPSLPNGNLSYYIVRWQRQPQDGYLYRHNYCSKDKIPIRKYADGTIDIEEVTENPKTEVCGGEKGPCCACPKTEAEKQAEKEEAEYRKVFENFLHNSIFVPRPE
Target sequence in this assay (P08069 741-1367 partner limits assumed, species assumed): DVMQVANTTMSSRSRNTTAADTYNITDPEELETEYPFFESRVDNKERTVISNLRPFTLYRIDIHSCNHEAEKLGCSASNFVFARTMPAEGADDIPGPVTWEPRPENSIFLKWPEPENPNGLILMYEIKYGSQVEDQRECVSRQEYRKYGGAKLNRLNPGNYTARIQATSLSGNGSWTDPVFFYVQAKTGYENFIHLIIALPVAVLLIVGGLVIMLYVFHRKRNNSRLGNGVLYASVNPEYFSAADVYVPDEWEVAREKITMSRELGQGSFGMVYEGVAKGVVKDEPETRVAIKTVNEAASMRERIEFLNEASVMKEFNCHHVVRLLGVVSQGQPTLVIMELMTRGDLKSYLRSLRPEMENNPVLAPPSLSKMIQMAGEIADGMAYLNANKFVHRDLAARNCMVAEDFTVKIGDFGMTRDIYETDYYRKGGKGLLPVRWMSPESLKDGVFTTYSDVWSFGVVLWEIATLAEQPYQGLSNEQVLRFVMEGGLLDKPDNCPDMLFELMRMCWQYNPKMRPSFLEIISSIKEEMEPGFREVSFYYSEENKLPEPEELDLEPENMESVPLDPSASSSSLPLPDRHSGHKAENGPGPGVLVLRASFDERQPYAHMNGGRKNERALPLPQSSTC

T1 sequence (Q60751 31-1373): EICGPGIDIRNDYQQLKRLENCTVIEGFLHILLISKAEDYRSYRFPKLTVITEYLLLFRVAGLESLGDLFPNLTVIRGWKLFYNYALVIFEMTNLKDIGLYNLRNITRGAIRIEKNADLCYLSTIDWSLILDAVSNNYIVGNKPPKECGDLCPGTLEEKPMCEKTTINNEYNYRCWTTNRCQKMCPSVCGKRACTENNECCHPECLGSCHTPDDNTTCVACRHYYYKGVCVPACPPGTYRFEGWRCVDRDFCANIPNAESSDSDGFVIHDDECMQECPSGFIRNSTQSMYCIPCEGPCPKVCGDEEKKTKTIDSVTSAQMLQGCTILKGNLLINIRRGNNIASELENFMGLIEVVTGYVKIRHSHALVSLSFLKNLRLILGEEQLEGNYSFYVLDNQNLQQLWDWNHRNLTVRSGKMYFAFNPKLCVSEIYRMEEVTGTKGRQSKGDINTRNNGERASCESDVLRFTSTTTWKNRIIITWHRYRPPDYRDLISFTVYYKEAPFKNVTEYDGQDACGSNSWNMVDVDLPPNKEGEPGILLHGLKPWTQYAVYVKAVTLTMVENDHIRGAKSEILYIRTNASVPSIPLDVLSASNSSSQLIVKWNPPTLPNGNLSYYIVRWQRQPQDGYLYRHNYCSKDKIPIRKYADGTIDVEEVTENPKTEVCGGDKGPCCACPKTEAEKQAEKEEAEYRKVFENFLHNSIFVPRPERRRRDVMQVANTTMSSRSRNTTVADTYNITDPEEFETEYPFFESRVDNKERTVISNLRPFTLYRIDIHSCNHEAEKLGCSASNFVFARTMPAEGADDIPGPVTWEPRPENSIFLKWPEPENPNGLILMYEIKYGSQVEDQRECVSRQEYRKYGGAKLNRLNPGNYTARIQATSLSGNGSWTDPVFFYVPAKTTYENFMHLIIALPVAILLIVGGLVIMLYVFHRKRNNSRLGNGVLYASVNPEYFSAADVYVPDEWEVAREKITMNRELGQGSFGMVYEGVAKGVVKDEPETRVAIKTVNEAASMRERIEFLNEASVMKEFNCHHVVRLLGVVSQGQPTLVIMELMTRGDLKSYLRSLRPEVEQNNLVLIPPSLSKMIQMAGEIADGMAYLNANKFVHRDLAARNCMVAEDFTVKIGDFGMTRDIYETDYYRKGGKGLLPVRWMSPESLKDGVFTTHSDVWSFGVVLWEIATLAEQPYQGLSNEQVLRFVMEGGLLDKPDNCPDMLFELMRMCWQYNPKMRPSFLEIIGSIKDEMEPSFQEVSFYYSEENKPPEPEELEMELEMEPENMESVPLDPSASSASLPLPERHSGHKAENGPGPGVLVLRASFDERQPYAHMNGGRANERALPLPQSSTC

Compound: CN=[N+](C)[O-] [AOM, azoxymethane]
ACF per colon ([1]; LOI(+) mice): 19.8±2.2 ACF per colon | ACF per colon ([1]; LOI(−) mice): 12.4±0.9 ACF per colon

inhibition of IGF2 signaling at the IGF1 receptor (IGF1 receptor): blocks IGF2 at IGF1R
Compound: Nc1ncnc2c1c(-c1cccc(OCc3ccccc3)c1)cn2C1CC(CN2CCC2)C1 (stereo not shown) [NVP-AEW541]
AOM-induced ACF formation ([1]; LOI(+) mice): 7.8±1.2 ACF per colon | decrease in ACFs normalized to colon surface area ([1]; LOI(+) mice): 56% | AOM-induced ACF formation ([1]; LOI(−) mice): 11.3±1.6 ACF per colon | decrease in ACFs normalized to colon surface area ([1]; LOI(−) mice): no decrease | Ccne1 expression in LOI(+) crypts relative to LOI(−) crypts (intestinal crypts): 0.57 fold | Cdc6 expression in LOI(+) crypts relative to LOI(−) crypts (intestinal crypts): 0.49 fold | Chaf1a expression in LOI(+) crypts relative to LOI(−) crypts (intestinal crypts): 0.42 fold | Lig1 expression in LOI(+) crypts relative to LOI(−) crypts (intestinal crypts): 0.42 fold | Mcm3 expression in LOI(+) crypts relative to LOI(−) crypts (intestinal crypts): 0.65 fold | Mcm5 expression in LOI(+) crypts relative to LOI(−) crypts (intestinal crypts): 0.48 fold | selectivity for IGF1R over the insulin receptor (IGF1R [2]): specifically inhibits IGF1R over the related insulin receptor | effect on IGF2-induced increased expression of Cdc6 (mouse ES cells; 800 ng/ml Igf2, 3 μM NVP-AEW541, all time points): completely abrogated | inhibition of IGF2-triggered Akt activation (Akt/PKB; LOI(+) MEF cells): significantly below the baseline | inhibition of IGF2-triggered Akt activation (Akt/PKB; LOI(−) MEF cells): inhibited to the baseline levels

Compound: insulin-like growth factor 2 [IGF2]
increase in Cdc6 gene expression (mouse ES cells; 3 hours): 50% | increase in Cdc6 gene expression (mouse ES cells; 6 hours): 56% | increase in Cdc6 gene expression (mouse ES cells; 10 hours): 40% | increase in Cdc6 gene expression (mouse ES cells; 24 hours): 25% | Akt signal at higher IGF2 doses (Akt/PKB; LOI(+) MEF cells, IGF2 doses above 400 ng/ml): progressively more transient and less pronounced | duration of sustained Akt activation (Akt/PKB; LOI(+) MEF cells, lowest IGF2 concentration 400 ng/ml): > 120 min | return of Akt activation to the baseline (Akt/PKB; LOI(−) MEF cells, IGF2 400, 800 and 1600 ng/ml): ≤ 90 min | Kd (IGF1R [3]): 1 to 10 nM
